Literature values, collected in patent publication US10006071B2, “Methods to control secretion of metabolic byproducts in algae to enhance recovery of said byproducts” (Institute for Systems Biology, priority 2010, dated 2018).
Read-outs that look alike come from different tables or passages of the source. Residues, ends and D or L forms follow the SMILES beside them. *: point of attachment. Cbz = O=C(OCc1ccccc1)*; CH2F = FC*

Tests used:
[1] = test system: caspase-3
[2] = test system: Caspase-9
[3] = test system: Caspase-6
[4] = test system: Caspase-8
[5] = test system: Caspase-1
[6] = test system: Metacaspase
[7] = test system: apoptosis
[8] = test system: metacaspase

SMILES	inhibition of caspase-3 [1]	inhibition of caspase-9 [2]	inhibition of caspase-6 [3]	inhibition of caspase-8 [4]	inhibition of caspase-1 [5]	inhibition of metacaspase [6]	effect on apoptosis [7]	further results
CC(=O)N[C@H](C(=O)N[C@@H](C)C(=O)N[C@@H](CC(=O)O)C(=O)CF)C(C)C [Ac-VAD-FMK] (HELM PEPTIDE1{[ac].V.A.D.[FC[*:1]]}$$$$V2.0)	inhibit	inhibited	inhibited	inhibited	inhibited	–	–	–
CC(=O)N[C@@H](Cc1ccc(O)cc1)C(=O)N[C@@H](CCC(=O)O)C(=O)N[C@H](C(=O)N[C@@H](CC(=O)O)C(=O)CCl)C(C)C [Ac-YEVD-CMK] (HELM PEPTIDE1{[ac].Y.E.V.D.[ClC[*:1]]}$$$$V2.0)	inhibit	inhibited	inhibited	inhibited	inhibited	–	–	–
CC(=O)N[C@@H](CC(=O)O)C(=O)N[C@@H](CCC(=O)O)C(=O)N[C@H](C(=O)N[C@H](C=O)CC(=O)O)C(C)C [AcDEVD-CHO]	–	–	–	–	–	inhibited	–	inhibition of caspase-3 ([1]; Chlorella saccharophila): inhibit
COC(=O)CC(NC(=O)OC(C)(C)C)C(=O)CF [Boc D-FMK]	inhibit	inhibited	inhibited	inhibited	inhibited	–	–	–
O=C(O)CN(CCN(CC(=O)O)CC(=O)O)CCN(CC(=O)O)CC(=O)O [DTPA, diethylene triamine pentaacetic acid]	–	–	–	–	–	–	permits apoptosis to occur	–
c1ccc(CN(CCN(Cc2ccccn2)Cc2ccccn2)Cc2ccccn2)nc1 [TPEN, N,N,N′,N′-tetrakis(2-pyridylmethyl)ethylenediamine]	–	–	–	–	–	–	permits apoptosis to occur	–
COC(=O)CC[C@H](NC(=O)[C@H](CC(=O)OC)NC(=O)OCc1ccccc1)C(=O)N[C@H](C(=O)N[C@@H](CC(=O)OC)C(=O)CF)C(C)C [Z-DEVD-FMK]	–	–	–	–	–	inhibited	–	inhibition of metacaspase [8]: inhibits
[Zn+2] [Zn^+2]	potent inhibitor	–	–	–	–	–	inhibit apoptosis	–
COC(=O)C[C@H](NC(=O)[C@H](C)NC(=O)[C@@H](NC(=O)OCc1ccccc1)C(C)C)C(=O)CF [zVAD-fmk] (Cbz-Val-Ala-Asp(OMe)-CH2F)	–	–	–	–	–	inhibited	–	–
